Measured values taken from PubChem BioAssay (NCI).
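Method: 48-hour compound exposure of cells in 96-well plates, five concentrations, linear interpolation of endpoints. At the GI50, growth is halved. Definition used: TGI = concentration required for complete inhibition of growth.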

Tests used:
Assay in all cases: NCI tumour cell line growth inhibition, 48 h
EKVX NSCLC = test system: EKVX NSCLC
HT29 colon = test system: HT29 colon
MALME-3M melanoma = test system: MALME-3M melanoma
CCRF-CEM leukemia = test system: CCRF-CEM leukemia
UO-31 renal = test system: UO-31 renal
SW-620 colon = test system: SW-620 colon
HOP-92 NSCLC = test system: HOP-92 NSCLC
OVCAR-5 ovarian = test system: OVCAR-5 ovarian
HCT-116 colon = test system: HCT-116 colon
SR leukemia = test system: SR leukemia

Row | SMILES | TGI (EKVX NSCLC) [µM] | TGI (HT29 colon) [µM] | TGI (MALME-3M melanoma) [µM] | TGI (CCRF-CEM leukemia) [µM] | TGI (UO-31 renal) [µM] | TGI (SW-620 colon) [µM] | TGI (HOP-92 NSCLC) [µM] | TGI (OVCAR-5 ovarian) [µM] | TGI (HCT-116 colon) [µM] | GI50 (EKVX NSCLC) [µM] | GI50 (HT29 colon) [µM] | GI50 (HOP-92 NSCLC) [µM] | GI50 (MALME-3M melanoma) [µM] | GI50 (OVCAR-5 ovarian) [µM] | GI50 (CCRF-CEM leukemia) [µM] | GI50 (UO-31 renal) [µM] | GI50 (HCT-116 colon) [µM] | GI50 (SW-620 colon) [µM] | GI50 (SR leukemia) [µM] | TGI (SR leukemia) [µM]
1 | COc1ccc(C(=O)Nc2ccccc2)cc1[N+](=O)[O-] | > 100 | > 100 | > 100 | > 100 | > 100 | > 100 |  |  |  |  |  |  |  |  |  |  |  |  |  | 
2 | Clc1ccc(C2=NN(c3ccccc3)C3c4cc(Br)ccc4OCC23)cc1 (centres undefined) | > 100 | > 100 | > 100 | > 100 | > 100 | > 100 | > 100 | > 100 | > 100 |  |  |  |  |  |  |  |  |  |  | 
3 | COC(=O)C1(c2ccc(OC)cc2)NC(c2ccccc2)C2C(=O)N(c3ccc(OC)cc3)C(=O)C21 (centres undefined) | > 100 | > 100 | > 100 | > 100 | > 100 | > 100 |  | > 100 |  |  |  |  |  |  |  |  |  |  |  | 
4 | Cn1cc(-c2nonc2-c2cn(C)c3ccc(Br)cc23)c2ccccc21 | > 100 | > 100 | > 100 | > 100 | > 100 | > 100 | > 100 | > 100 | > 100 | 3.82 | 3.26 | 5.16 | 4.86 | 7.05 | 3.37 | 3.39 | 4.3 | 2.53 |  | 
5 | Cc1ccc(C)c(NC(=O)CCC(=O)CC(=O)C(C)(C)C)c1 | > 100 | > 100 | > 100 | > 100 | > 100 | > 100 | > 100 | > 100 | > 100 |  |  |  |  |  |  |  |  |  |  | 
6 | Cn1cccc1C1CC(=O)N(CCC[Se]C#N)C1=O (centres undefined) | 4.46 | 28.6 | 4.12 | 7.66 | 3.29 | 11.8 |  | 6.51 | 6.27 | 1.93 | 2.72 |  | 1.89 | 2.49 | 2.22 | 1.57 | 2.34 | 3.26 | 2.76 | > 100
7 | COC(=O)CC(CC(=O)C(=O)OC)C(=O)OC (centres undefined) | > 100 | > 100 | > 100 | > 100 | > 100 | > 100 | > 100 | > 100 | > 100 |  |  |  |  |  |  |  |  |  |  | 
8 | CC1(C)CC[C@]2(C(=O)O)CCC3(C)C(=CCC4[C@@]5(C)CC[C@H](OC6OCC(O)C(O)C6OC6OC(CO)C(O)C(O)C6O)C(C)(C)C5CC[C@]43C)C2C1 (some centres undefined) | 3.85 | 5.23 | 3.54 |  | 3.71 | 4.03 | 3.69 | 6.93 | 7.06 |  |  |  |  |  |  |  |  |  |  | 5.87
9 | C#CCSc1nnnn1-c1ccc(Br)c(C)c1 | 97.3 | 96 | 71.8 | > 100 |  | 52.1 | 74.5 | > 100 | > 100 | 4.86 | 30.3 | 14.5 | 27.2 | 69.4 | 29.5 |  | 29.3 | 19.1 | 19.8 | > 100
10 | CN(C)c1ccc(N=C(C#N)c2nc(N)nc(N3CCOCC3)n2)cc1 | > 100 | > 100 | 49.4 | > 100 | > 100 | > 100 | > 100 | > 100 |  | > 100 | 67.5 | 28.3 | 16.4 | > 100 | 97.2 | 71.7 |  | > 100 | 34.9 | > 100
11 | COc1ccc(Br)c(CCCCC(=O)O)c1 | > 100 | > 100 |  | > 100 |  | > 100 | 76.3 |  | > 100 |  |  |  |  |  |  |  |  |  |  | 
12 | COc1cccc(C2C3=C(COC3=O)N(CCO)c3cc4c(cc32)CCC4)c1 (centres undefined) | > 50 | 0.156 | > 50 | > 50 | 1.44 | > 50 |  | > 50 | 0.692 | 0.133 | 0.042 |  | 0.915 | 0.344 | 0.122 | 0.0192 | 0.0526 | 0.0252 | 0.015 | 0.165
13 | COc1ccccc1NS(=O)(=O)c1cc(C(C)(C)C)ccc1OCCOc1ccc(C(C)(C)C)cc1S(=O)(=O)Nc1ccccc1OC | > 100 | > 100 | > 100 | > 100 | > 100 | > 100 | > 100 | > 100 | > 100 |  |  |  |  |  |  |  |  |  |  | 
14 | COc1ccc(C=O)c(N(C)C(=O)C(C)(C)C)c1 | > 100 | > 100 | > 100 | > 100 | > 100 | > 100 | > 100 |  | > 100 |  |  |  |  |  |  |  |  |  |  | 
15 | NC(=NCc1ccccc1)N/N=C\c1ccnc2ccccc12 | 33.1 | 25.4 | 27 | 76.3 | 22.1 | 31.2 | 7.86 | 32.7 |  |  |  |  |  |  |  |  |  |  |  | 4.98
16 | COC(=O)Oc1nn(C(=O)OC)c(=O)c2ccccc12 (tested in a mixture with another compound) | > 100 | > 100 | > 100 | > 100 | > 100 | > 100 |  | > 100 | > 100 |  |  |  |  |  |  |  |  |  |  | > 100
17 | COC(=O)C12C3C=CC(O3)C1C1C=CC2O1 (centres undefined) | > 100 | > 100 | > 100 | > 100 | > 100 | > 100 | > 100 | > 100 |  |  |  |  |  |  |  |  |  |  |  | > 100
18 | CC1=C(C(=O)Nc2cc(F)c(F)cc2F)C(c2cccc([N+](=O)[O-])c2)C(C(=O)Nc2ccccc2C(F)(F)F)=C(C)N1 (centres undefined) | 77.1 | 62.8 | 77.8 | 55.1 | 42 | 87.1 | 32.3 | 62.1 |  |  |  |  |  |  |  |  |  |  |  | 
19 | O=[N+]([O-])c1ccc(N=Nc2c(O)[nH]c3ccc(Br)cc23)c([N+](=O)[O-])c1 | 33.7 | > 100 | 15 | 9.3 | 7.14 | 11.7 | 5.1 |  | 3.09 |  |  |  |  |  |  |  |  |  |  | 10.5
20 | Fc1cccc(C=NC23CC4CC(CC(C4)C2)C3)c1 | > 100 | > 100 | > 100 | > 100 | > 100 |  | > 100 | > 100 | > 100 |  |  |  |  |  |  |  |  |  |  | 
